Reference: paper PMC8622415, “Inhibitory Effect of Chlorogenic Acid Analogues Comprising Pyridine and Pyrimidine on α-MSH-Stimulated Melanogenesis and Stability of Acyl Analogues in Methanol” (Pharmaceuticals, 2021)
Several values for one entry are separate records, joined by “and”; a condition that tells them apart may be missing. Identical values can stand only once. Like-named read-outs stand apart in the source and are kept apart here. One block for each compound: values may come before it.

Assays:
[1] = tested on: B16 melanoma cells; test: Inhibition of α-MSH-stimulated melanin formation (melanin measurement); type: cell-based, Mouse; conditions: α-MSH 10.0 nM, melanin released into medium, absorbance 405 nm, read-out: IC50, inhibition of α-MSH-induced melanogenesis
Method: Mouse melanoma B16 cells were cultured in a 96-well culture plate (2.5 × 10^3 cells/well). Culture media were washed from each culture plates after 24 h and treated with freshly prepared 10% FBS-DMEM medium, various concentrations (such as 0.5, 1.0, 3.0, 10.0, 30.0, and 100.0 µM) of compound samples, and stimulants (α-MSH, 10.0 nM). Then, it was incubated at 37 °C for 72 h, and the amount of melanin released into the medium was determined by measuring the absorbance at wavelength of 405 nm using spectrophotometer (Molecular Device, San Jose, CA, USA). The absorbance of stimulated cells using α-MSH was used as a control, and the inhibition level was calculated by subtracting the absorbance values of cells that were not stimulated. The absorbance values were compared with standard curves obtained with synthetic melanin. The synthetic melanin (Sigma-Aldrich, St. Louis, MO, USA) was dissolved in 0.85 M KOH-10% DMSO solution; then, it was serially diluted with 10% FBS-DMEM medium and then aliquoted into a 96-well culture plate. Then, the absorbance of melanin was measured by a spectrophotometer at 405 nm, and a standard curve was prepared. Using this value, the amount of melanin released out of the cell was directly calculated. Results obtained by three or more sets of experiments were expressed as mean ± standard error.

[2] = Stability of CGA acyl analogues in methanol solution (HPLC); type: physicochemical; conditions: 25 °C
Method: The stability of the synthesized acyl analogues was measured in methanol, since the acetyl analogue of CGA was highly unstable in methanol solution. First, 10 mg of the sample was dissolved in 2 mL of methanol and stored at 25 °C. Then, purity was analyzed using HPLC (Shimadzu LC solution, Kyoto, Japan) for 28 days. The samples in methanol solution were diluted 10 times in the HPLC mobile phase ((A) 0.5% formic acid in H2O (B) 0.5% formic acid in acetonitrile (ACN), A/B = 20/80) and injected in HPLC column (inertsil ODS-3V C18 column (250 × 4.00 mm i.d; 5 μm)). Finally, the amount of acyl compound remaining in the solution was measured by calculating the area under the curve of the HPLC chromatogram, and the results were expressed in percentage units.

IC50 ([1]; Mus musculus, B16, 72 h): > 100 µM
SMILES: COc1ccc(-c2ccnc(NCc3ccccc3)n2)cc1OC [Compound 10a, N-Benzyl-4-(3,4-dimethoxyphenyl)pyrimidin-2-amine]

IC50 ([1]; Mus musculus, B16, 72 h): 54 ± 6 µM
SMILES: COc1ccc(-c2ccnc(NCc3ccc(Cl)cc3)n2)cc1OC [Compound 10b, N-(4-Chlorobenzyl)-4-(3,4-dimethoxyphenyl)pyrimidin-2-amine]

IC50 ([1]; Mus musculus, B16, 72 h): 32 ± 2 µM
SMILES: COc1ccc(-c2ccnc(NCc3cccc(Cl)c3)n2)cc1OC [Compound 10c, N-(3-Chlorobenzyl)-4-(3,4-dimethoxyphenyl)pyrimidin-2-amine]

IC50 ([1]; Mus musculus, B16, 72 h): 40 ± 8 µM
SMILES: COc1ccc(-c2ccnc(NCc3ccccc3Cl)n2)cc1OC [Compound 10d, N-(2-Chlorobenzyl)-4-(3,4-dimethoxyphenyl)pyrimidin-2-amine]

IC50 ([1]; Mus musculus, B16, 72 h): > 100 µM
SMILES: COc1ccc(-c2ccnc(NCc3ccc(C(F)(F)F)cc3)n2)cc1OC [Compound 10e, 4-(3,4-Dimethoxyphenyl)-N-(4-(trifluoromethyl)benzyl)pyrimidin-2-amine]

IC50 ([1]; Mus musculus, B16, 72 h): 20 ± 1 µM
SMILES: COc1ccc(-c2ccnc(NCc3cccc(C(F)(F)F)c3)n2)cc1OC [Compound 10f, 4-(3,4-Dimethoxyphenyl)-N-(3-(trifluoromethyl)benzyl)pyrimidin-2-amine]

IC50 ([1]; Mus musculus, B16, 72 h): 1.1 ± 0.1 µM | IC50 ([1]; 72 h): 1 ± 0.1 µM | Amount remaining in methanol (HPLC area) ([2]; day 0): 99.3294% | Amount remaining in methanol (HPLC area) ([2]; day 1): 91.3520% | Amount remaining in methanol (HPLC area) ([2]; day 2): 85.3800% | Amount remaining in methanol (HPLC area) ([2]; day 3): 80.3685% | Amount remaining in methanol (HPLC area) ([2]; day 4): 75.4921% | Amount remaining in methanol (HPLC area) ([2]; day 5): 72.147% | Amount remaining in methanol (HPLC area) ([2]; day 7): 64.7751% | Amount remaining in methanol (HPLC area) ([2]; day 9): 59.4842% | Amount remaining in methanol (HPLC area) ([2]; day 11): 55.1819% | Amount remaining in methanol (HPLC area) ([2]; day 21): 43.3505% | Amount remaining in methanol (HPLC area) ([2]; day 28): 39% and 39.0229%
SMILES: CCCC(=O)Oc1ccc(/C=C/C(=O)OC2CCCCC2)cc1OC(=O)CCC [Compound 13a, (E)-4-(3-(Cyclohexyloxy)-3-oxoprop-1-en-1-yl)-1,2-phenylene dibutyrate]

IC50 ([1]; Mus musculus, B16, 72 h): 1.3 ± 0.4 µM | Amount remaining in methanol (HPLC area) ([2]; day 0): 99.8006% | Amount remaining in methanol (HPLC area) ([2]; day 1): 93.7356% | Amount remaining in methanol (HPLC area) ([2]; day 2): 89.9637% | Amount remaining in methanol (HPLC area) ([2]; day 3): 86.8066% | Amount remaining in methanol (HPLC area) ([2]; day 4): 83.9188% | Amount remaining in methanol (HPLC area) ([2]; day 5): 82.1086% | Amount remaining in methanol (HPLC area) ([2]; day 7): 77.5962% | Amount remaining in methanol (HPLC area) ([2]; day 9): 74.0389% | Amount remaining in methanol (HPLC area) ([2]; day 11): 70.6843% | Amount remaining in methanol (HPLC area) ([2]; day 21): 58.4127% | Amount remaining in methanol (HPLC area) ([2]; day 28): 52% and 52.5500%
SMILES: CCCCCC(=O)Oc1ccc(/C=C/C(=O)OC2CCCCC2)cc1OC(=O)CCCCC [Compound 13b, (E)-4-(3-(Cyclohexyloxy)-3-oxoprop-1-en-1-yl)-1,2-phenylene dihexanoate]

IC50 ([1]; Mus musculus, B16, 72 h): 1.9 ± 0.1 µM | Amount remaining in methanol (HPLC area) ([2]; day 0): 99.5492% | Amount remaining in methanol (HPLC area) ([2]; day 1): 99.3034% | Amount remaining in methanol (HPLC area) ([2]; day 2): 99.1518% | Amount remaining in methanol (HPLC area) ([2]; day 3): 99.0038% | Amount remaining in methanol (HPLC area) ([2]; day 4): 98.8061% | Amount remaining in methanol (HPLC area) ([2]; day 5): 98.5395% | Amount remaining in methanol (HPLC area) ([2]; day 7): 97.9332% | Amount remaining in methanol (HPLC area) ([2]; day 9): 97.4173% | Amount remaining in methanol (HPLC area) ([2]; day 11): 96.8033% | Amount remaining in methanol (HPLC area) ([2]; day 21): 95.0243% | Amount remaining in methanol (HPLC area) ([2]; day 28): 94% and 94.0833%
SMILES: CC(C)(C)C(=O)Oc1ccc(/C=C/C(=O)OC2CCCCC2)cc1OC(=O)C(C)(C)C [Compound 13c, (E)-4-(3-(Cyclohexyloxy)-3-oxoprop-1-en-1-yl)-1,2-phenylene bis(2,2-dimethylpropanoate)]

IC50 ([1]; Mus musculus, B16, 72 h): 2.3 ± 0.2 µM | Amount remaining in methanol (HPLC area) ([2]; day 0): 98.9750% | Amount remaining in methanol (HPLC area) ([2]; day 1): 96.9973% | Amount remaining in methanol (HPLC area) ([2]; day 2): 95.8267% | Amount remaining in methanol (HPLC area) ([2]; day 3): 94.6557% | Amount remaining in methanol (HPLC area) ([2]; day 4): 93.5713% | Amount remaining in methanol (HPLC area) ([2]; day 5): 93.0573% | Amount remaining in methanol (HPLC area) ([2]; day 7): 91.6229% | Amount remaining in methanol (HPLC area) ([2]; day 9): 90.6724% | Amount remaining in methanol (HPLC area) ([2]; day 11): 89.8768% | Amount remaining in methanol (HPLC area) ([2]; day 21): 87.5571%
SMILES: O=C(/C=C/c1ccc(OC(=O)C2CCCCC2)c(OC(=O)C2CCCCC2)c1)OC1CCCCC1 [Compound 13d, (E)-4-(3-(Cyclohexyloxy)-3-oxoprop-1-en-1-yl)-1,2-phenylene dicyclohexanecarboxylate]

Second part, the compound before the results:

SMILES: OC[C@H]1O[C@@H](Oc2ccc(O)cc2)[C@H](O)[C@@H](O)[C@@H]1O [Arbutin, reference compound]
IC50 ([1]; Mus musculus, B16, 72 h): 380 ± 9.5 µM

SMILES: COc1ccc(-c2ccnc(NCc3ccccc3)c2)cc1OC [Compound 6a, N-Benzyl-4-(3,4-dimethoxyphenyl)pyridin-2-amine]
IC50 ([1]; Mus musculus, B16, 72 h): 17 ± 4 µM

SMILES: COc1ccc(-c2ccnc(NCc3ccc(Cl)cc3)c2)cc1OC [Compound 6b, N-(4-Chlorobenzyl)-4-(3,4-dimethoxyphenyl)pyridin-2-amine]
IC50 ([1]; Mus musculus, B16, 72 h): 4.5 ± 0.7 µM

SMILES: COc1ccc(-c2ccnc(NCc3cccc(Cl)c3)c2)cc1OC [Compound 6c, N-(3-Chlorobenzyl)-4-(3,4-dimethoxyphenyl)pyridin-2-amine]
IC50 ([1]; Mus musculus, B16, 72 h): 5 ± 1.4 µM

SMILES: COc1ccc(-c2ccnc(NCc3ccccc3Cl)c2)cc1OC [Compound 6d, N-(2-Chlorobenzyl)-4-(3,4-dimethoxyphenyl)pyridin-2-amine]
IC50 ([1]; Mus musculus, B16, 72 h): 8.5 ± 0.7 µM | IC50 ([1]; 72 h): 8 ± 1 µM

SMILES: COc1ccc(-c2ccnc(NCc3ccc(C(F)(F)F)cc3)c2)cc1OC [Compound 6e, 4-(3,4-Dimethoxyphenyl)-N-(4-(trifluoromethyl)benzyl)pyridin-2-amine]
IC50 ([1]; Mus musculus, B16, 72 h): 8.5 ± 0.7 µM

SMILES: COc1ccc(-c2ccnc(NCc3cccc(C(F)(F)F)c3)c2)cc1OC [Compound 6f, 4-(3,4-Dimethoxyphenyl)-N-(3-(trifluoromethyl)benzyl)pyridin-2-amine]
IC50 ([1]; Mus musculus, B16, 72 h): 2.5 ± 0.7 µM

SMILES: COc1ccc(-c2ccnc(NCc3ccccc3C(F)(F)F)c2)cc1OC [Compound 6g, 4-(3,4-Dimethoxyphenyl)-N-(2-(trifluoromethyl)benzyl)pyridin-2-amine]
IC50 ([1]; Mus musculus, B16, 72 h): 7.5 ± 0.7 µM

SMILES: CC(C)COc1ccc(/C=C/C(=O)OC2CCCCC2)cc1OCC(C)C [Compound 15, (E)-Cyclohexyl 3-(3,4-diisobutoxyphenyl)acrylate]
IC50 ([1]; Mus musculus, B16, 72 h): > 100 µM

SMILES: COc1ccc(/C=C/C(=O)OC2CCCCC2)cc1OC [Compound 17, (E)-Cyclohexyl 3-(3,4-dimethoxyphenyl)acrylate]
IC50 ([1]; Mus musculus, B16, 72 h): > 100 µM

SMILES: CC(=O)Oc1ccc(/C=C/C(=O)OC2CCCCC2)cc1OC(C)=O [Compound 18]
Amount remaining in methanol (HPLC area) ([2]; day 0): 99.5029% | Amount remaining in methanol (HPLC area) ([2]; day 1): 71.1918% | Amount remaining in methanol (HPLC area) ([2]; day 2): 55.5162% | Amount remaining in methanol (HPLC area) ([2]; day 3): 43.5699% | Amount remaining in methanol (HPLC area) ([2]; day 4): 33.7154% | Amount remaining in methanol (HPLC area) ([2]; day 5): 27.3752% | Amount remaining in methanol (HPLC area) ([2]; day 7): 16.5047% | Amount remaining in methanol (HPLC area) ([2]; day 9): 10.5572% | Amount remaining in methanol (HPLC area) ([2]; day 11): 6.9200% | Amount remaining in methanol (HPLC area) ([2]; day 21): 1.4408% | Amount decomposed in methanol solution ([2]; within 10 days, HPLC): more than 90%

SMILES: O=c1cc(CO)occ1O [Kojic acid, reference compound]
IC50 ([1]; Mus musculus, B16, 72 h): 54 ± 1.5 µM
